From ChEMBL document CHEMBL1129429, “Structure-activity relationships for the binding of arylpiperazines and arylbiguanides at 5-HT3 serotonin receptors” (J Med Chem, 1996)

Columns and labels:
[1] = target: Serotonin 3 (5-HT3) receptor; experiment: Compound was tested for the inhibition of [3H]GR-65630 binding to 5-hydroxytryptamine 3 receptor expressed in NG 108-15 cells; type: cell-based
Oryctolagus cuniculus = organism: Oryctolagus cuniculus; experiment: Minimal effective dose for its 5-HT3 -Stimulant potency in rabbit bladder preparation.; type: functional
Rattus norvegicus [2] = organism: Rattus norvegicus; experiment: Compound tested for its 5-HT3 -Stimulant potency in rat relative to compound 6 ( Value = 1); type: functional
Rattus norvegicus [3] = organism: Rattus norvegicus; experiment: Compound tested for its 5-HT3 -Stimulant potency in rat relative to compound 6 ( Value = 1); range 0.3-0.6; type: functional
Rattus norvegicus [4] = organism: Rattus norvegicus; experiment: Compound tested for its 5-HT3 -Stimulant potency in rat relative to compound 6 ( Value = 1); Range 0.5-1.3; type: functional

In the case of `Cc1cccc(NC(N)=NC(=N)N)c1`, the Ki ([1]; read-out: Ki) is reported as 0.78 µM.

For `c1ccc(C2CCNCC2)cc1`, the Ki ([1]; read-out: Ki) was over 10 µM.

In the case of `N=C(N)NCc1cccc(Cl)c1`, the Ki ([1]; read-out: Ki) is reported as 1.2 µM.

Work on `COc1ccc(N2CCNCC2)c(C)c1` yielded a Ki ([1]; read-out: Ki) of 0.66 µM.

`CN(C)C(=N)N=C(N)Nc1cccc(Cl)c1` gave a Ki ([1]; read-out: Ki) of over 10 µM.

`Clc1ccc(N2CCNCC2)cc1` was tested, and the Ki ([1]; read-out: Ki) was 2.16 µM.

In the case of `C[N+]1(C)CCN(c2cccc(C(F)(F)F)c2)CC1`, the Ki ([1]; read-out: Ki) is reported as over 10 µM.

`NC(N)=Nc1ccc2ccccc2c1` gave a Ki ([1]; read-out: Ki) of 0.025 µM, a Min effective dose (Oryctolagus cuniculus) of 0.015 mg/kg and a Relative potency (Rattus norvegicus [2]) of 1.

In the case of `N=C(N)/N=C(\N)Nc1cccc([N+](=O)[O-])c1`, the Ki ([1]; read-out: Ki) is reported as 0.22 µM.

`NCCCNc1cccc(Cl)c1` gave a Ki ([1]; read-out: Ki) of over 10 µM.

Compound `N=C(N)NCCc1cccc(Cl)c1` has a Ki ([1]; read-out: Ki) of 0.04 µM.

In the case of `Clc1cccc(N2CCNCC2)c1` [CHLOROPHENYLPIPERAZINE], the Ki ([1]; read-out: Ki) is reported as 0.062 µM and the Relative potency (Rattus norvegicus [2]) is reported as under 0.02.

Work on `N=C(N)Nc1ccccc1` [PHENYLGUANIDINE] yielded a Ki ([1]; read-out: Ki) of 2.34 µM.

`Cc1ccc(NC(=N)N=C(N)N)cc1` showed a Ki ([1]; read-out: Ki) of over 10 µM.

`Clc1cccc(CC2=NCCN2)c1` gave a Ki ([1]; read-out: Ki) of over 10 µM.

Work on `CNCCc1cccc(Cl)c1` yielded a Ki ([1]; read-out: Ki) of over 10 µM.

Work on `N=C(N)NCCc1ccc(Cl)cc1` yielded a Ki ([1]; read-out: Ki) of 0.243 µM.

`N=C(N)Nc1ccc(Cl)cc1` showed a Ki ([1]; read-out: Ki) of 0.32 µM.

For `N=C(N)Cc1cccc(Cl)c1`, the Ki ([1]; read-out: Ki) was 1.2 µM.

In the case of `COc1ccc(Cl)cc1/N=C(\N)N=C(N)N`, the Ki ([1]; read-out: Ki) is reported as 0.126 µM.

`Cc1cccc(N2CCN(C)CC2)n1` was tested, and the Ki ([1]; read-out: Ki) was 0.56 µM.

Compound `Cc1ccc(NC(N)=NC(=N)N)cc1Cl` has a Ki ([1]; read-out: Ki) of 0.225 µM.

For `N=C(N)NC(=N)Nc1ccccc1Cl`, the Ki ([1]; read-out: Ki) was 0.062 µM.

For `Clc1cccc(N2CCNCC2)n1`, the Ki ([1]; read-out: Ki) was 0.015 µM.

Work on `N=C(N)NC(=N)Nc1cccc(Cl)c1` yielded a Ki ([1]; read-out: Ki) of 0.017 µM, a Min effective dose (Oryctolagus cuniculus) of 0.0066 mg/kg and a Relative potency (Rattus norvegicus [2]) of 1.

Compound `NCCCc1cccc(Cl)c1` has a Ki ([1]; read-out: Ki) of over 10 µM.

For `c1ccc2nc(N3CCCCC3)ccc2c1`, the Ki ([1]; read-out: Ki) was over 10 µM.

`N=C(N)NC(=N)Nc1ccccc1` [PHENYL BIGUANIDE] showed a Ki ([1]; read-out: Ki) of 1.2 µM, a Min effective dose (Oryctolagus cuniculus) of 0.01 mg/kg and a Relative potency (Rattus norvegicus [3]) of 0.45.

`N=C(N)Nc1cccnc1` [PYRAXININE] showed a Ki ([1]; read-out: Ki) of 2.91 µM.

With `NCCCCc1cccc(Cl)c1` the Ki ([1]; read-out: Ki) was over 10 µM.

`Cc1cccc(NC(=N)N)c1` was tested, and the Ki ([1]; read-out: Ki) was 6.52 µM.

In the case of `c1ccc2cc(N3CCNCC3)ccc2c1`, the Ki ([1]; read-out: Ki) is reported as 0.032 µM, the Min effective dose (Oryctolagus cuniculus) is reported as 0.03 mg/kg and the Relative potency (Rattus norvegicus [2]) is reported as under 0.02.

With `NCCC(=O)Nc1cccc(Cl)c1` the Ki ([1]; read-out: Ki) was over 10 µM.

`COc1cccc(NC(=N)N)c1` was tested, and the Ki ([1]; read-out: Ki) was 1.6 µM.

Work on `N=C(N)NC(=O)Nc1cccc(Cl)c1` yielded a Ki ([1]; read-out: Ki) of 1.25 µM.

Work on `N=C(N)Nc1ccccn1` yielded a Ki ([1]; read-out: Ki) of over 10 µM.

In the case of `NC(=O)Nc1cccc(Cl)c1`, the Ki ([1]; read-out: Ki) is reported as over 10 µM.

With `COc1ccccc1N1CCNCC1` the Ki ([1]; read-out: Ki) was 2.5 µM.

With `NC(N)=Nc1ccccc1Cl` the Ki ([1]; read-out: Ki) was 0.19 µM.

For `COc1ccc(N2CCNCC2)cc1`, the Ki ([1]; read-out: Ki) was 1.64 µM.

`N=C(N)NCCc1ccccc1Cl` showed a Ki ([1]; read-out: Ki) of 0.15 µM.

`COc1ccc(Cl)cc1N1CCNCC1` was tested, and the Ki ([1]; read-out: Ki) was 0.04 µM.

In the case of `NC(N)=Nc1cccc(C(F)(F)F)c1`, the Ki ([1]; read-out: Ki) is reported as 5.7 µM.

For `NC(N)=Nc1cccc(Cl)c1`, the Ki ([1]; read-out: Ki) was 0.035 µM, the Min effective dose (Oryctolagus cuniculus) was 0.15 mg/kg and the Relative potency (Rattus norvegicus [4]) was 0.74.

Compound `c1ccc(N2CCNCC2)cc1` [PHENYLPIPERAZINE] has a Ki ([1]; read-out: Ki) of 3 µM.

Work on `NCCNC(=O)c1cccc(Cl)c1` yielded a Ki ([1]; read-out: Ki) of over 10 µM.

Compound `N=C(N)NC(=N)Nc1ccc2ccccc2c1` has a Ki ([1]; read-out: Ki) of 0.012 µM, a Min effective dose (Oryctolagus cuniculus) of 0.01 mg/kg and a Relative potency (Rattus norvegicus [2]) of 0.5.

`N=C(N)NC(=N)Nc1ccc(Cl)cc1` [4-CHLOROPHENYLBIGUANIDE] gave a Ki ([1]; read-out: Ki) of 0.2 µM.

Compound `NCCc1cccc(Cl)c1` has a Ki ([1]; read-out: Ki) of over 10 µM.

In the case of `CN1CCN(c2ccc3ccccc3n2)CC1`, the Ki [1] is reported as 0.003 µM.

Compound `C[N+]1(C)CCN(c2cccc(Cl)c2)CC1` has a Ki ([1]; read-out: Ki) of 1.45 µM.

`NC=Nc1cccc(Cl)c1` gave a Ki ([1]; read-out: Ki) of over 10 µM.

In the case of `CN(C)CCc1cccc(Cl)c1`, the Ki ([1]; read-out: Ki) is reported as over 10 µM.

`COc1ccccc1C1(O)CCNCC1` showed a Ki ([1]; read-out: Ki) of over 10 µM.

With `COc1ccc(N2CCNCC2)c(OC)c1` the Ki ([1]; read-out: Ki) was over 10 µM.

`c1ccc2c(N3CCNCC3)cccc2c1` showed a Ki ([1]; read-out: Ki) of 0.175 µM.

`FC(F)(F)c1cccc(N2CCNCC2)c1` was tested, and the Ki ([1]; read-out: Ki) was 1.39 µM.
